Data published in paper PMC12362618, “Development of the First Small-Molecule Inhibitor Targeting Oncostatin M for Treatment of Breast Cancer” (Journal of Medicinal Chemistry, 2025).
Values joined by “and” are separate entries in the source; they are usually repeats but may differ in a detail not shown here. Equal values may be shown once. “Also recorded” adds a separate entry of the source.

Experiments:
OSM = target: T1, OSM (Homo sapiens, UniProt P13725); experiment: Fluorescence quenching assay of SMI binding to OSM; conditions: average of three independent replicates, errors at 95% confidence level, read-out: KD (OSM-SMI dissociation constant)
T1 sequence (P13725 26-252): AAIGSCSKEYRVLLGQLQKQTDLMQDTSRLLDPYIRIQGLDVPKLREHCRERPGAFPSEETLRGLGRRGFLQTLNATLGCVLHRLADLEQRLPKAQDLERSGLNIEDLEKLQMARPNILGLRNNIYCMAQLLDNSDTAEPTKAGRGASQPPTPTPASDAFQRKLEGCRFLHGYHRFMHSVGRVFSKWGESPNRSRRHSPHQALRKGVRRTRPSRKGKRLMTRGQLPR
Experimental: To perform fluorescence quenching assays, 2 mL of 1 μM OSM solution in polymethylmethacrylate cuvettes was prepared by dilution of a concentrated stock solution of recombinant OSM with buffer solution (100 mM sodium chloride, 50 mM sodium phosphate, 50 mM freshly added DTT, pH = 6.6). Cuvettes were titrated with 5 μL increments of a 1 mM small molecule stock solution in DMSO, with a cuvette titrated with an equivalent volume of DMSO as a control. […] In cases where little to no significant quenching was observed, the titration was supplemented with 2.5 μL increments of a 10 mM small molecule stock solution to increase the concentration delivered. The fluorescence intensity measurements were obtained on a Cary Eclipse spectrofluorometer equipped with a Xenon arc lamp. Fluorescence intensities were measured by exciting at 280 nm (4 nm slit width) and recording the emission from 345 to 355 nm with a photomultiplier tube voltage of 700 V, unless otherwise noted. Each titration point was normalized to OSM’s native fluorescence intensity, corrected by adding the decrease in fluorescence intensity caused by dilution with DMSO, and the average value of the three replicates for each point was plotted against concentration of small molecule delivered and fit to a modified Stern–Volmer function as described by Charlier and Plapp. Binding affinity (K D) values were obtained […] from the fitting routine. All curve-fitting analysis was performed in GraphPad Prism 8.0.

[1] = tested on: OSM-induced pSTAT3 in T47D human breast cancer cells; experiment: pSTAT3 ELISA in T47D cells treated with OSM ± SMI; assay type: cell-based; conditions: T47D; SMI 10 μM + OSM 10 ng/mL, 30 min; ELISA; relative to +OSM, no-treatment blank subtracted
Experimental: To test the effect of SMIs in vitro, each SMI was incubated with OSM for a period of 1 h at 37 °C, and T47D and MDA-MB-231 human breast cancer cell lines were subsequently treated with OSM (10 ng/mL) and/or SMI-10 (10 μM) analogs for 30 min and measured for pSTAT3 levels via ELISA. The results of these assays are presented graphically in Figure and, for T47D cells, in Table as a percentage of reduction from +OSM alone. For phospho-STAT3 (pSTAT3) ELISAs, T47D MDA-MB-231, and MCF-7 cells were seeded in 12- or 24-well plates at 70–75% confluency and allowed to adhere overnight, after which cells were serum-starved with serum-free RPMI-1640 for 4 h. SMIs (10 μM in DMSO or serially diluted to specified concentrations from a 100 mM stock in DMSO) and human recombinant OSM (10 ng/mL; PeproTech; #300–10T-10UG) were incubated in serum-free RPMI-1640 medium for 1 h. After incubation, the SMI-10 analogs or SMI-10B13 and OSM were added to the serum-starved cells for 30 min. Immediately afterward, the cells were lysed using 1x PathScan Sandwich ELISA Lysis Buffer (Cell Signaling Technology; #7018S), collected, and stored at −20 °C. Lysates were analyzed for pSTAT3 levels using either the PathScan Phospho-STAT3 (Tyr705) Sandwich ELISA Antibody Pair kit (Cell Signaling Technology; #7146) or Human/Mouse Phospho-STAT3 (Y705) DuoSet IC ELISA (R&D Systems; DYC4607B), according to manufacture’s protocol. pSTAT3 expression was measured with absorbance at 450 nm and quantified by comparison relative to OSM-induced pSTAT3 levels. To calculate an IC50 for SMI-10B13, a standard curve was generated as described in the DuoSet IC ELISA datasheet to determine the concentration of pSTAT3.

[2] = tested on: OSM-mediated signaling (pSTAT3, pAKT, pJNK, pERK) in T47D cells; experiment: Immunoblot of OSM-mediated signaling in T47D cells; assay type: cell-based, human; conditions: SMI 10 μM, OSM 10 ng/mL, 30 min
Experimental: For immunoblot analysis, T47D breast cancer cells were treated and collected in the same manner as described above for the ELISA preparation. After lysate collection, samples were run on a 10% SDS-PAGE gel and transferred to a nitrocellulose membrane via semidry transfer. Blots were rinsed with DI H2O and allowed to completely dry at room temperature before blocking with LiCor Intercept PBS Blocking Buffer (LiCor, Lincoln, NE; Cat# 927-90001) for 1 h. After blocking, primary antibodies (1:1000) suspended in blocking buffer supplemented with 0.1% Tween were added, shaken at room temperature for 1 h, and stored at 4 °C overnight. Membranes were then washed 6 times for 5 minutes each with 1X PBS supplemented with 0.5% Tween while shaking at room temperature, and secondary antibodies (1:15,000) were applied and incubated for 1 h. Afterward, membranes were washed as previously described above and imaged at 700 nm using the LiCor Odyssey CLx Imaging System. Quantification of immunoblots was performed using the LiCor Image Studio software, normalizing to β-Actin, and calculating relative fold change compared to nontreated samples. Antibodies used included phospho-STAT3 (Y705) (Cell Signaling Technology, Danvers, MA; cat. no. 9145), phospho-AKT (S473) (Cell Signaling Technology, Danvers, MA; cat. no. 4060), phospho-JNK ([…]/[…]) (Cell Signaling Technology, Danvers, MA; cat. no. 4668), phospho-ERK (T202/Y204) (Cell Signaling Technology, Danvers, MA; cat. no. 9101), β-Actin (Cell Signaling Technology; cat. no. 3700), and donkey antirabbit IRDye 800CW (LiCor, Lincoln, NE; Cat# 925-32213).

Structure (SMILES)	Kd (OSM)	Relative pSTAT3 Levels (Table 1, SMI-10A-10J) [1]	Relative pSTAT3 Levels (Table 2, SMI-10B analogs) [1]	Inhibition of OSM-mediated signaling cascades by immunoblot (words) [2]	Inhibition of OSM-mediated signaling cascades by immunoblot (words) ([2]; listed as 10B8)
COC(=O)c1cc(-c2ccc3c(c2)OCO3)c(-c2ccc3c(c2)OCO3)o1 [SMI-10A, Methyl 4,5-Bis(benzo[d][1,3]dioxol-5-yl)furan-2-carboxylate]	29.6 ± 5.6 µM	84.7%			
COc1ccc(-c2cc(/C=C/C(=O)O)oc2-c2ccc(OC)c(OC)c2)cc1OC [SMI-10B1, (E)-3-(4,5-Bis(3,4-dimethoxyphenyl)furan-2-yl)acrylic Acid]	18.4 ± 1.3 µM		62.35%		
COc1ccc(-c2cc(/C=C/C(=O)O)oc2-c2ccc(OC)c(O)c2)cc1O [SMI-10B2, (E)-3-(4,5-Bis(3-hydroxy-4-methoxyphenyl)furan-2-yl)acrylic Acid]	17.5 ± 1.2 µM		56.66%		
COc1cc(-c2cc(/C=C/C(=O)O)oc2-c2ccc(O)c(OC)c2)ccc1O [SMI-10B3, (E)-3-(4,5-Bis(4-hydroxy-3-methoxyphenyl)furan-2-yl)acrylic Acid]	18.5 ± 1.7 µM		67.12%		
O=C(O)/C=C/c1cc(-c2ccc3c(c2)OCO3)c(-c2ccc3c(c2)OCO3)s1 [SMI-10B4, (E)-3-(4,5-Bis(benzo[d][1,3]dioxol-5-yl)thiophen-2-yl)acrylic Acid]	21.2 ± 1.8 µM		17.98%		
O=C(O)/C=C/c1cc(-c2ccc3c(c2)OCO3)c(-c2ccc3c(c2)OCO3)[nH]1 [SMI-10B5, (E)-3-(4,5-Bis(benzo[d][1,3]dioxol-5-yl)-1H-pyrrol-2-yl)acrylic Acid]	9.2 ± 1.2 µM		19.89%		
Cn1c(/C=C/C(=O)O)cc(-c2ccc3c(c2)OCO3)c1-c1ccc2c(c1)OCO2 [SMI-10B6, (E)-3-(4,5-Bis(benzo[d][1,3]dioxol-5-yl)-1-methyl-1H-pyrrol-2-yl)acrylic Acid]	10 ± 1 µM		20.43%		
O=C(O)/C=C/c1cc(-c2ccc3c(c2)OCCO3)c(-c2ccc3c(c2)OCCO3)o1 [SMI-10B7, (E)-3-(4,5-Bis(2,3-dihydrobenzo[b][1,4]dioxin-6-yl)furan-2-yl)acrylic Acid]	6.6 µM and 6.64 µM		73.96%		
O=C(O)/C=C/c1cc(-c2ccccc2)c(-c2ccc3c(c2)OCO3)o1 [SMI-10B8, (E)-3-(5-(Benzo[d][1,3]dioxol-5-yl)-4-phenylfuran-2-yl)acrylic Acid]	7.2 ± 0.8 µM		81.66%	most effective	better at inhibiting pSTAT3, pAKT, pJNK, and pERK signaling
O=C(O)/C=C/c1cc(-c2ccc3c(c2)OCO3)c(-c2ccccc2)o1 [SMI-10B9, (E)-3-(4-(Benzo[d][1,3]dioxol-5-yl)-5-phenylfuran-2-yl)acrylic Acid]	18.2 ± 2 µM		30.98%		
O=C(O)/C=C/c1cc(-c2ccccc2)c(-c2ccccc2)o1 [SMI-10B10, (E)-3-(4,5-Diphenylfuran-2-yl)acrylic Acid]	20.7 ± 1.9 µM		46.10%		
O=C(O)/C=C/c1ccc(-c2ccc3c(c2)OCO3)o1 [SMI-10B11, (E)-3-(5-(Benzo[d][1,3]dioxol-5-yl)furan-2-yl)acrylic Acid]	20.1 ± 1.5 µM		42.43%		
O=C(O)/C=C/c1cc(-c2ccc3c(c2)OCO3)co1 [SMI-10B12, (E)-3-(4-(Benzo[d][1,3]dioxol-5-yl)furan-2-yl)acrylic Acid]	66.7 ± 5.8 µM		34.26%	most effective; also recorded: better at inhibiting pSTAT3, pAKT, pJNK, and pERK signaling	
O=C(O)CCc1cc(-c2ccc(F)c(F)c2)c(-c2ccc3c(c2)OCO3)o1 [SMI-10B15, 3-(5-(Benzo[d][1,3]dioxol-5-yl)-4-(3,4-difluorophenyl)furan-2-yl)propanoic Acid]	8.9 ± 2 µM		75.05%		
O=C(O)CCc1cc(-c2cncnc2)c(-c2ccc3c(c2)OCO3)o1 [SMI-10B16, 3-(5-(Benzo[d][1,3]dioxol-5-yl)-4-(pyrimidin-5-yl)furan-2-yl)propanoic Acid]	16.5 ± 5.2 µM		41.62%		
COc1ccc(-c2cc(CCC(=O)O)oc2-c2ccc3c(c2)OCO3)cc1 [SMI-10B17, 3-(5-(Benzo[d][1,3]dioxol-5-yl)-4-(4-methoxyphenyl)furan-2-yl)propanoic acid]	34.5 ± 6.9 µM		86.51%		
O=C(O)CCc1cc(-c2ccc(Cl)c(Cl)c2)c(-c2ccc3c(c2)OCO3)o1 [SMI-10B18, 3-(5-(Benzo[d][1,3]dioxol-5-yl)-4-(3,4-dichlorophenyl)furan-2-yl)propanoic Acid]	13.5 ± 2.5 µM		35.00%		
OCc1cc(-c2ccc3c(c2)OCO3)c(-c2ccc3c(c2)OCO3)o1 [SMI-10H, (4,5-Bis(benzo[d][1,3]dioxol-5-yl)furan-2-yl)methanol]	> 200 µM	61.1%			
O=C(O)c1cc(-c2ccc3c(c2)OCO3)c(-c2ccc3c(c2)OCO3)o1 [SMI-10I, 4,5-Bis(benzo[d][1,3]dioxol-5-yl)furan-2-carboxylic Acid]	46.2 ± 7.2 µM	45.9%			
